This is an account of results in publication PMC9786103, “Potent and Selective Inhibition of CYP1A2 Enzyme by Obtusifolin and Its Chemopreventive Effects” (Pharmaceutics, 2022).

The structures appear in SMILES notation.

Usually IC50 stands for the concentration that inhibits the measured activity by half. By Ki is commonly meant a measure of affinity in units of concentration, obtained from inhibition or displacement.

Holding throughout (type): biochemical
The target of data set [1] is T1, rCYP1A1 (Homo sapiens, UniProt P04798).
T1 construct: purchased SPMED (Busan, Republic of Korea)
T1 sequence (P04798 1-512): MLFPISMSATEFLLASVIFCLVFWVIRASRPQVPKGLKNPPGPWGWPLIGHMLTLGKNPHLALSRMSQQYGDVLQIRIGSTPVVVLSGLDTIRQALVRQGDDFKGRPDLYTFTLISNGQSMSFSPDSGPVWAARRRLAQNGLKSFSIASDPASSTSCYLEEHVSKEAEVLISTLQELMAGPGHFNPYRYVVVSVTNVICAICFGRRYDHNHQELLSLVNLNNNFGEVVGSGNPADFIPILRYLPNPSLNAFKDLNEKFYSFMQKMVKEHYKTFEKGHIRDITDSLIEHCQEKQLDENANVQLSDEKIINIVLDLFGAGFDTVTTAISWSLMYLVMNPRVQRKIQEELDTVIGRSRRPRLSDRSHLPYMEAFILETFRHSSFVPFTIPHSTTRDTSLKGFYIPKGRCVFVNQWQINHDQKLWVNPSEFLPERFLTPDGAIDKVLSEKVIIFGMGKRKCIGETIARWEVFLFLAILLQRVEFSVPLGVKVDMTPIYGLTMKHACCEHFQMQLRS
The data set can be described thus: Phenacetin O-deethylation (POD) in recombinant CYP1A1.

The target of data set [2] is T1, rCYP1A1. The experiment in a line: Recombinant CYP1A1 inhibition with 9-cis-retinal as substrate. Conditions: substrate 9-cis-retinal. From the text: Table 5 Inhibitory effects (IC50) of obtusifolin against recombinant CYP1A1 and CYP1A2. | column: IC50 (μM)
The target of the next data set is T2, CYP2C9 (Homo sapiens, UniProt P11712).
T2 construct: Mixtures of pooled HLM, P450 substrates, and obtusifolin; tissue XenoTech XTreme 200; host or cells: pooled human liver microsomes
T2 sequence (P11712 whole entry): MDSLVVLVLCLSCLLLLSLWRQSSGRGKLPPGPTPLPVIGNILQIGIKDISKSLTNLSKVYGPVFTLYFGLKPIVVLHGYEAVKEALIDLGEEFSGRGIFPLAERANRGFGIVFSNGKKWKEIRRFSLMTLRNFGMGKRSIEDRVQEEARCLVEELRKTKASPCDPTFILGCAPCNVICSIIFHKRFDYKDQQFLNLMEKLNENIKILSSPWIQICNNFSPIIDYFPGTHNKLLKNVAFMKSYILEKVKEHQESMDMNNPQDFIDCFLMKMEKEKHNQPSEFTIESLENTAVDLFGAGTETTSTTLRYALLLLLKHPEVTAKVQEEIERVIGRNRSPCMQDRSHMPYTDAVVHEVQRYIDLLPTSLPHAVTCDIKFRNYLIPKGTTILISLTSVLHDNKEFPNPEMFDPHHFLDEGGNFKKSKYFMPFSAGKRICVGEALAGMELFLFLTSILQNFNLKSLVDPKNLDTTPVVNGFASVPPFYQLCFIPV
The experiment in a line: Tolbutamide 4-hydroxylation in human liver microsomes. Conditions: HLMs. (In general: Microsomes from liver hold many membrane-bound enzymes, among them those of drug oxidation.)

The target of the next data set is T3, CYP2C19 (Homo sapiens, UniProt P33261).
T3 construct: Mixtures of pooled HLM, P450 substrates, and obtusifolin; tissue XenoTech XTreme 200; host or cells: pooled human liver microsomes
T3 sequence (P33261 whole entry): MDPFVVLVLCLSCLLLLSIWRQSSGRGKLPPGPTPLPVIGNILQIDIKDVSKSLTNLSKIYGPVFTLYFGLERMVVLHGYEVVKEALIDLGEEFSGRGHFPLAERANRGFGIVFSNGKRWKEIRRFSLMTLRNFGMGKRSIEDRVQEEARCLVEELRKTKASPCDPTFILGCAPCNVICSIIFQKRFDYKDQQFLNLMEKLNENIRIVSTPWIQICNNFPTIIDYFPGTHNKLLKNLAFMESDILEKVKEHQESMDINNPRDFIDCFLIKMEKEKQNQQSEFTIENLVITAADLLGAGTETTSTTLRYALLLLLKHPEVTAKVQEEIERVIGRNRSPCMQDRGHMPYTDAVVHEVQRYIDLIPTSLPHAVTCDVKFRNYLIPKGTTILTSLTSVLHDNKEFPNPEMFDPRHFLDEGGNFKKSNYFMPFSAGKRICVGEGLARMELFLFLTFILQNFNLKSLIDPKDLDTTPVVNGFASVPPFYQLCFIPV
The experiment in a line: Omeprazole 4-hydroxylation in human liver microsomes. Conditions: HLMs.

In another data set the target is T4, CYP2B6 (Homo sapiens, UniProt P20813).
T4 construct: Mixtures of pooled HLM, P450 substrates, and obtusifolin; tissue XenoTech XTreme 200; host or cells: pooled human liver microsomes
T4 sequence (P20813 1-491): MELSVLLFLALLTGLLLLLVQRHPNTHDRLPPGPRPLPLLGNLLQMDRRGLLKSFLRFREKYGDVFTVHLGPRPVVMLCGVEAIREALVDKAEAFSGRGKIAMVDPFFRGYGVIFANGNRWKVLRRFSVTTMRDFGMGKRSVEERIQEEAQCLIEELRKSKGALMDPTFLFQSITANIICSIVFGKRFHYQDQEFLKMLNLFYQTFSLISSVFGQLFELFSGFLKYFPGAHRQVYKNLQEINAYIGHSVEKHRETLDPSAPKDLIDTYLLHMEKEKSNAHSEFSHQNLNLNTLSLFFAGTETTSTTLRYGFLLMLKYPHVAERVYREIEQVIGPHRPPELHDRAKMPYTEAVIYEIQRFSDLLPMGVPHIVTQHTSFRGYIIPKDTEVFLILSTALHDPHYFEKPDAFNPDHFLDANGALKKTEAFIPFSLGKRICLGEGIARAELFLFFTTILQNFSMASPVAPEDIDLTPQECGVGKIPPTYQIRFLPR
The experiment in a line: Bupropion 6-hydroxylation in human liver microsomes. The note with it: HLMs.

For another data set, the system named is other P450s. The data set can be described thus: Inhibition of other P450s in human liver microsomes (summary). Conditions: HLMs, P450s other than CYP1A2; read-out: IC50 against other P450s.
Data set [3] deals with T5, CYP1A2 (Homo sapiens, UniProt P05177).
T5 sequence (P05177 1-516): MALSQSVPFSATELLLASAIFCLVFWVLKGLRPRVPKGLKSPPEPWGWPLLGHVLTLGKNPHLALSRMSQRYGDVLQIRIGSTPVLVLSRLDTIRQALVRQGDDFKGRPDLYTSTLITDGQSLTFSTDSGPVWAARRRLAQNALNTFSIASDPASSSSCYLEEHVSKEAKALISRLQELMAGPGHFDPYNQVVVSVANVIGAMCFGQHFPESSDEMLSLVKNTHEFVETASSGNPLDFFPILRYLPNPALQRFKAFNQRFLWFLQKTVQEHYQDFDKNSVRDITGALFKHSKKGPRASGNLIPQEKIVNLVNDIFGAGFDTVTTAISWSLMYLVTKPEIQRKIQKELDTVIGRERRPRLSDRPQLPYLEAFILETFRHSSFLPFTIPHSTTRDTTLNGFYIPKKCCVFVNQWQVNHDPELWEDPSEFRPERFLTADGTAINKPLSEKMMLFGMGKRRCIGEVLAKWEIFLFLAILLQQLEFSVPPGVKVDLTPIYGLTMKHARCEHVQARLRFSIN
The data set can be described thus: Kinetic characterization of inhibition of CYP1A2-mediated POD in human liver microsomes. Also noted: tissue XenoTech XTreme 200; host or cells: pooled human liver microsomes. Conditions: HLMs; for Type of inhibition of CYP1A2-mediated POD: Lineweaver-Burk and Dixon plots. From the text:
The other conditions were similar to those used in the P450 inhibition study, as described earlier.
WinNonlin software (Pharsight, Mountain View, CA, USA) was used to calculate IC50 values. Based on Lineweaver–Burk double reciprocal plots, secondary plots of Lineweaver–Burk plots versus obtusifolin concentrations, and visual inspection of Dixon plots, the type of inhibition and apparent kinetic parameters for inhibitory activity (Ki) were estimated.

Data set [4] has as its target T5, CYP1A2. The experiment in a line: Time-dependent inhibition assay (IC50 shift) of CYP1A2-mediated POD in pHLMs. Details: tissue XenoTech XTreme 200; host or cells: pooled human liver microsomes. Here is the method: The IC50 shift approach was applied to assess the time-dependent inhibition of CYP1A2 by obtusifolin [18]. For 30 min, obtusifolin was pre-incubated with pHLMs in the presence of NGS. The reaction was started with 100 µM phenacetin and then incubated for 15 min. Following reaction termination and centrifugation, aliquots of the supernatants were subjected to LC-MS/MS analysis.

Protocol for CYP2B6: (§1) The following P450 isoform-specific substrates were used: coumarin (CYP2A6); bupropion (CYP2B6); amodiaquine (CYP2C8); tolbutamide (CYP2C9); omeprazole (CYP2C19); dextromethorphan (CYP2D6); chlorzoxazone (CYP2E1); and midazolam (CYP3A). […] NGS was introduced to start the reaction, which was followed by an additional incubation (15 min). Following reaction termination, aliquots of the supernatants were analyzed with LC-MS/MS.
(§2) Reverse phase column (Kinetex XB-C18, 100 × 2.10 mm; Phenomenex, Torrance, CA, USA) and triple-quadrupole mass spectrometer (LCMS 8060, Shimadzu, Kyoto, Japan) with an ultra high-performance LC system (Nexera X2, Shimadzu) analyze all the metabolites. […] For each metabolite, quantitation was carried out in selected reaction monitoring (SRM) mode using the following precursor-to-product ion transition: m/z 152 > 110 for acetaminophen (CYP1A2), m/z 214 > 186 for resorufin (CYP1A1 and CYP1A2), m/z 163 > 107 for 7-hydroxycoumarin (CYP2A6), m/z 256 > 238 for 6-hydroxybupropion (CYP2B6), m/z 328 > 283 for N-desethylamodiaquine (CYP2C8), m/z 287 > 89 for 5-hydroxytolbutamide (CYP2C9), m/z 362 > 214 for 4-hydroxyomeprazole (CYP2C9), m/z 258 > 157 for dextrorphan (CYP2D6), m/z 184 > 120 for 6-hydroxychlorzoxazone (CYP2E1), m/z 342 > 203 for 1′-hydroxymidazolam (CYP3A), and m/z 295 > 100 for trimipramine (IS) [23, 24].
Protocol for CYP2C19: as §1, §2
Protocol for CYP2C9: as §1, §2
Description for other P450s: The inhibitory potential of obtusifolin against the biotransformation of eight P450 probe substrates was examined using previously reported methods with slight changes [21, 22]. The following P450 isoform-specific substrates were used: coumarin (CYP2A6); bupropion (CYP2B6); amodiaquine (CYP2C8); tolbutamide (CYP2C9); omeprazole (CYP2C19); dextromethorphan (CYP2D6); chlorzoxazone (CYP2E1); and midazolam (CYP3A). Mixtures of pooled HLM, P450 substrates, and obtusifolin (0, 0.05, 0.2, 0.5, 2, 5, or 10 µM for CYP1A2; and 0, 0.5, 2, 5, 20, or 50 µM for the other P450 isoforms) were pre-incubated (5 min, 37 °C). NGS was introduced to start the reaction, which was followed by an additional incubation (15 min). Following reaction termination, aliquots of the supernatants were analyzed with LC-MS/MS.

In the case of `COc1c(O)c(C)cc2c1C(=O)c1c(O)cccc1C2=O` [Obtusifolin, obtusifolin], the “Selectivity for rCYP1A1 over rCYP1A2” value on rCYP1A1 [1] (CYP1A-mediated POD activity) is reported as “over six-fold”. For the same compound, the IC50 is 0.06 ± 0.02 µM on rCYP1A1 [1] (substrate phenacetin (POD)); greater than 10 µM on rCYP1A1 [2]; 28.6 µM against CYP2C9; greater than 50 µM on CYP2C19; greater than 50 µM against CYP2B6; greater than 28.6 µM with other P450s. The IC50 on CYP1A2 [4] (30 min preincubation with pHLMs and NGS, phenacetin 100 µM) came to 0.13 µM. Moreover, the Ki at CYP1A2 [3] (phenacetin 20, 50, 100 µM, read-out: Ki, CYP1A2-mediated phenacetin O-deethylation) turned out to be 0.11 ± 0.02 µM. For the same compound, the figures for the “Type of inhibition of CYP1A2-mediated POD” value at CYP1A2 [3] and on CYP1A2 [3] (listed as obtusifolin) were “competitive” and “competitive inhibition”, respectively. The “Time dependence of CYP1A2 inhibition” value on CYP1A2 [4] (IC50 shift approach) is reported as “time-independent inhibition”. Besides, the IC50 shift at 15 min at CYP1A2 [4] (human, pooled human liver microsomes, probe phenacetin (100 µM), 30 min preincubation with NGS vs without, pHLMs) was determined as 1.46.
